Measured values as given in the supplement of paper PMC13380429.

Key:
Conditions in all cases: 72 h
[1] = tested on: U2OS; assay: drug sensitivity score (DSS) for viability; higher = more toxic; extreme values may be limits of the assay
[2] = tested on: Vero E6; assay: as above
[3] = tested on: Calu-3; assay: as above
[4] = tested on: HepG2; assay: as above
[5] = tested on: Caco-2; assay: as above
[6] = tested on: U2OS; assay: cell viability relative to DMSO; higher = less toxic
[7] = tested on: Vero E6; assay: as above
[8] = tested on: Calu-3; assay: as above
[9] = tested on: HepG2; assay: as above
[10] = tested on: Caco-2; assay: as above
[11] = tested on: U2OS; assay: relative viability EC50 (midpoint between 100% and the lowest measured viability); higher = less toxic
[12] = tested on: Calu-3; assay: as above
[13] = tested on: HepG2; assay: as above
[14] = tested on: Caco-2; assay: as above
[15] = tested on: Vero E6; assay: as above

Compound	drug sensitivity score [1]	drug sensitivity score [2]	drug sensitivity score [3]	drug sensitivity score [4]	drug sensitivity score [5]	cell viability ([6]; 1 nM) [%]	cell viability ([6]; 10 nM) [%]	cell viability ([6]; 100 nM) [%]	cell viability ([6]; 1000 nM) [%]	cell viability ([6]; 10000 nM) [%]	cell viability ([7]; 1 nM) [%]	cell viability ([7]; 10 nM) [%]	cell viability ([7]; 100 nM) [%]	cell viability ([7]; 1000 nM) [%]	cell viability ([7]; 10000 nM) [%]	cell viability ([8]; 1 nM) [%]	cell viability ([8]; 10 nM) [%]	cell viability ([8]; 100 nM) [%]	cell viability ([8]; 1000 nM) [%]	cell viability ([8]; 10000 nM) [%]	cell viability ([9]; 1 nM) [%]	cell viability ([9]; 10 nM) [%]	cell viability ([9]; 100 nM) [%]	cell viability ([9]; 1000 nM) [%]	cell viability ([9]; 10000 nM) [%]	cell viability ([10]; 1 nM) [%]	cell viability ([10]; 10 nM) [%]	cell viability ([10]; 100 nM) [%]	cell viability ([10]; 1000 nM) [%]	cell viability ([10]; 10000 nM) [%]	relative viability EC50 [11] [µM]	relative viability EC50 [12] [µM]	relative viability EC50 [13] [µM]	relative viability EC50 [14] [µM]	relative viability EC50 [15] [µM]
COc1ccc(C(=O)c2ccccc2O)c(O)c1 [dioxybenzone]	0	1.6	0	0	0	103	99	100	105	102	110	73.6	92.4	99.4	67.2	106	93.3	97.7	91.1	106	102	92	96.9	96	99.3	101	91	106	98.7	101	> 10	> 10	> 10	> 10	–
NS(=O)(=O)c1ccc(-n2nc(C(F)(F)F)cc2-c2ccc(Cl)cc2)cc1 [SC-236]	0	0	–	0	0.7	99.1	96	98.1	102	103	94.7	93.3	91.6	91.6	100	–	–	–	–	–	111	99.5	101	101	103	102	92	86.3	96.6	82.8	> 10	–	> 10	> 10	> 10
CC(N)C12CC3CC(CC(C3)C1)C2 (configuration not stated) [rimantadine]	0	–	0	0	0	95.3	98	101	102	104	–	–	–	–	–	91	84.1	82.5	96.6	95.6	93.6	108	100	101	103	101	94.6	101	103	103	> 10	> 10	> 10	> 10	–
CC[C@H](C)[C@H](NC(=O)[C@H](Cc1ccc(O)cc1)NC(=O)[C@@H](NC(=O)[C@H](CCCNC(=N)N)NC(=O)[C@@H](N)CC(=O)O)C(C)C)C(=O)N[C@@H](Cc1c[nH]cn1)C(=O)N1CCC[C@H]1C(=O)O [TXA127]	0	–	0	0	0	98.9	98.7	99.1	93.3	96.9	–	–	–	–	–	95.2	90.6	97.9	89.2	105	96.2	105	89.3	104	92.4	104	110	98.2	99.4	89.4	> 10	> 10	> 10	> 10	–
Cc1nnc(C[C@@H]2C=C(c3ccc(Cl)cc3)c3ccccc3-n3c(C)nnc32)o1 [BET-BAY-002]	8.6	17.5	7.4	9.2	4.9	97.1	101	88.2	61.4	36.9	94.6	98	72.1	23.3	16.2	93.1	103	94.7	62.5	53.9	91	94.1	87	58.6	41.5	96.9	97.1	90.4	74.8	68.3	0.557	–	0.355	–	0.169
CCCC[C@@H](NC(=O)[C@@H](Cc1cn(C(=O)OC)c2ccccc12)NC(=O)[C@H](CC(C)(C)C)NC(=O)N1[C@H](C)CCC[C@@H]1C)C(=O)O [BQ-788]	0	–	0	0	0	97.1	90.1	95.8	105	99.8	–	–	–	–	–	98.9	98.3	112	106	97.2	89.9	88.1	104	107	101	102	104	96.1	106	104	> 10	> 10	> 10	> 10	–
Cc1nc(-c2ccc(OCC(C)C)c(C#N)c2)sc1C(=O)O [febuxostat]	0	0	–	0	0	92.8	99.9	97.2	102	106	94.3	98.5	100	101	96.4	–	–	–	–	–	112	96.8	107	96.8	94.1	93.5	94	104	98.6	96.1	> 10	–	> 10	> 10	> 10
